In patent publication US20220259212A1, “INHIBITORS OF INDOLEAMINE 2,3-DIOXYGENASE AND/OR TRYPTOPHAN 2,3-DIOXYGENASE” (Idorsia Pharmaceuticals Ltd, priority 2019, published 2022) one finds IC50 data, which are given here for twelve compounds.

Experiment [1] addresses T1, Recombinant full-length human IDO1 (Homo sapiens, UniProt P14902).
T1 construct: Recombinant full-length human IDO1 with a N-terminal hexahistidine tag; hexahistidine (N); made in house; host or cells: E. coli
The experiment in a line: IDO1 enzymatic assay (NFK quantified by LCMS). The class given is biochemical. The conditions noted are these: 2 nM enzyme, 5 μM L-tryptophan, 30 min pre-incubation, pH6.5; mean if measured multiple times; read-out: hIDO activity (IC50 in nM). The method, then: 1) Testing Compounds for IDO Inhibitory Activity in an IDO1 Enzymatic Assay:
Recombinant full-length human IDO1 with a N-terminal hexahistidine tag expressed in E. coli and purified to homogeneity is incubated at a final concentration of 2 nM in assay buffer consisting of 37.5 mM phosphate buffer at pH6.5 supplemented with 10 mM ascorbic acid, 0.45 μM methylene blue, 50 U/ml catalase, 0.01% BSA, and 0.01% Tween 20 (protocol modified from Seegers et al, JBS 2014). Example compounds are serially diluted in DMSO, further diluted in phosphate buffer, and added to the enzyme at final concentrations ranging from 10 μM to 0.5 nM. The final DMSO concentration is 0.6%. Following a pre-incubation of 30 minutes at RT, the reaction is started by the addition of L-tryptophan at a final concentration of 5 μM in assay buffer. After 30 minutes of incubation at RT, 3 μL of the 20 μl reaction mixture are transferred to a 384 deep well plate containing 25 μL of deionized water. 100 μl of 200 nM L-Tryptophan-(indole-d5) in cold 100% methanol are added followed by a 10 minutes centrifugation at 3220×g at 4° C. An additional 75 μL of deionized water are then added followed by a 10 minutes centrifugation at 3220×g at 4° C. The product of the reaction N′-Formylkynurenine (NFK) is quantified by LCMS and normalized to the L-Tryptophan-(indole-d5) signal. Samples with 0.6% DMSO (0% effect) and a TDO/IDO inhibitor (100% effect) are used as control samples to set the parameters for the non-linear regression necessary for the determination of the half-maximal inhibitory concentration (IC50) for each compound. For each compound concentration the percentage of activity compared to 0% and 100% effect is calculated as average±STDEV (each concentration measured in duplicate). IC50 values and curves are generated with XLfit software (IDBS) using Dose-Response One Site model 203 (four parameter logistic curve model). The calculated IC50 values may fluctuate depending on the daily assay performance. Fluctuations of this kind are known to those skilled in the art. When compounds are measured multiple times, mean values are given.

Experiment [2] has as its target T2, Recombinant human TDO comprising amino acids 19-407 (Homo sapiens, UniProt P48775).
T2 construct: human TDO comprising amino acids 19-407; hexahistidine (N); made in house; host or cells: E. coli
The experiment in a line: TDO2 enzymatic assay (NFK quantified by LCMS). Type of experiment: biochemical. The settings on record: 15 nM enzyme, 200 μM L-tryptophan, 30 min pre-incubation, pH7; mean if measured multiple times; read-out: hTDO activity (IC50 in nM). As for the experimental part:
2) Testing Compounds for TDO Inhibitory Activity in a TDO2 Enzymatic Assay:
Recombinant human TDO comprising amino acids 19-407 with a N-terminal hexahistidine tag expressed in E. coli and purified to homogeneity is incubated at a final concentration of 15 nM in assay buffer consisting of 75 mM phosphate buffer at pH7 supplemented with 100 μM ascorbic acid, 50 U/ml Catalase, 0.01% BSA, and 0.01% Tween 20 (protocol modified from Seegers et al, JBS 2014). Example compounds are serially diluted in DMSO, further diluted in phosphate buffer, and added to the reaction mixture at final concentrations ranging from 10 μM to 0.5 nM. The final DMSO concentration is 0.6%. Following a pre-incubation of 30 minutes at RT, the reaction is started by the addition of L-tryptophan at a final concentration of 200 μM in assay buffer. After 30 minutes of incubation at RT, 3 μL of the reaction mixture are transferred to a 384 deep well plate containing 25 μL of deionized water. 100 μl of 200 nM L-Tryptophan-(indole-d5) in cold 100% methanol are added followed by a 10 minutes centrifugation at 3220×g at 4° C. An additional 75 μL of deionized water are then added followed by a 10 minutes centrifugation at 3220×g at 4° C. The product of the reaction N′-Formylkynurenine (NFK) is quantified by LCMS and normalized to the L-Tryptophan-(indole-d5) signal. Samples with 0.6% DMSO (0% effect) and a TDO/IDO inhibitor (100% effect) are used as control samples to set the parameters for the non-linear regression necessary for the determination of the half-maximal inhibitory concentration (IC50) for each compound. For each compound concentration the percentage of activity compared to 0% and 100% effect is calculated as average±STDEV (each concentration measured in duplicate). IC50 values and curves are generated with XLfit software (IDBS) using Dose-Response One Site model 203 (four parameter logistic curve model). The calculated IC50 values may fluctuate depending on the daily assay performance. Fluctuations of this kind are known to those skilled in the art. When compounds are measured multiple times, mean values are given.

The next experiment deals with T3, IDO1 in SKOV3 cells (Homo sapiens, UniProt P14902).
T3 construct: SKOV3 cells (NCI, No. 0503405) which upregulate IDO1 after stimulation with IFNγ; host or cells: SKOV3 cells stimulated with IFNγ
The experiment in a line: Cell-based IDO inhibitory activity in IFNγ-stimulated SKOV3 cells (NFK + kynurenine by LCMS). The conditions noted are these: IFNγ 50 ng/ml, 200 uM L-tryptophan, 24 hours. The source says:
3) Testing Compounds for IDO/TDO Inhibitory Activity and Toxicity in Cell-Based Assays
SW48 cells (ATCC, CCL-231) are used to measure compounds for TDO inhibitory activity and are routinely maintained in DMEM high glucose/GlutaMAX™/pyruvate 90% (v/v), FCS 10% (v/v), Penicilin/streptomycin 1% (v/v). SKOV3 cells (NCI, No. 0503405) which upregulate IDO1 after stimulation with IFNγ are used to measure compounds for IDO inhibitory activity. SKOV3 cells are routinely maintained in RPMI 90% (v/v), FCS 10% (v/v), Penicilin/streptomycin 1% (v/v). SW48 or SKOV3 cells are seeded in 384 well plates at a density of 8000 cells in 45 ul per well or 4000 cells in 45 ul per well, respectively. Plates are incubated at 37° C./5% CO2 for 24 hours. On the next day, 10 ul compound in serial dilutions (tested concentration range 10 uM-40 nM) and 200 uM L-tryptophan are added (SKV03 receive in addition IFNγ at a final concentration of 50 ng/ml). After 24 hours of incubation at 37° C./5% CO2, 3 ul of the supernatant per well is transferred to 25 ul H2O per well in a 384 deep well plate and 25 ul of the supernatant per well is transferred to waste. The SKOV3 and SW48 cell plates with 25 ul supernatant per well remaining are used to measure viability (see below). The 384 deep well plate containing 3 ul supernatant and 25 ul H2O per well are further processed for LCMS: After the addition of 100 ul L-tryptophan-(indole-d5) (Sigma 615862) at 200 nM in methanol, the 384 deep well plates are centrifuged for 10 minutes at 3220×g at 4° C., 75 ul H2O is added per well and plates centrifuged again for 10 minutes at 3220×g at 4° C. N-formylkynurenine and kynurenine are quantified by LCMS, normalized to the internal standard L-tryptophan-(indole-d5) and the sum is calculated. Samples with 0.2% DMSO (0% effect) and a TDO/IDO inhibitor (100% effect) are used as control samples to set the parameters for the non-linear regression necessary for the determination of the IC50 for each compound. For each compound concentration the percentage of activity compared to 0% and 100% effect is calculated as average±STDEV (each concentration measured in duplicate). IC50 values and curves are generated with XLfit software (IDBS) using Dose-Response One Site model 203. The calculated IC50 values may fluctuate depending on the daily cellular assay performance. Fluctuations of this kind are known to those skilled in the art. When compounds are measured multiple times, mean values are given.

T1 sequence (P14902 whole entry): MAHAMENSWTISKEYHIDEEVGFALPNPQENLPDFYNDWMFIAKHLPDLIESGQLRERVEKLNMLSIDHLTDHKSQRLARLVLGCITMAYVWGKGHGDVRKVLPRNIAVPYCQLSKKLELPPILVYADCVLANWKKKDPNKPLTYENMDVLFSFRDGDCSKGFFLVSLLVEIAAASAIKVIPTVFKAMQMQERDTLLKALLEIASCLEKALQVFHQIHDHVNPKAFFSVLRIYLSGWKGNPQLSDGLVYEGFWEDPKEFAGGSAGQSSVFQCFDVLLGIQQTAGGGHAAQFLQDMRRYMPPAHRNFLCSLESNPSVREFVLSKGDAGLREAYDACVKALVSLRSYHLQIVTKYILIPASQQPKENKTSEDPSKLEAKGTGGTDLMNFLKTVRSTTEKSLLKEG
T3 sequence (P14902 whole entry): as above
T2 sequence (P48775 19-406 limits assumed): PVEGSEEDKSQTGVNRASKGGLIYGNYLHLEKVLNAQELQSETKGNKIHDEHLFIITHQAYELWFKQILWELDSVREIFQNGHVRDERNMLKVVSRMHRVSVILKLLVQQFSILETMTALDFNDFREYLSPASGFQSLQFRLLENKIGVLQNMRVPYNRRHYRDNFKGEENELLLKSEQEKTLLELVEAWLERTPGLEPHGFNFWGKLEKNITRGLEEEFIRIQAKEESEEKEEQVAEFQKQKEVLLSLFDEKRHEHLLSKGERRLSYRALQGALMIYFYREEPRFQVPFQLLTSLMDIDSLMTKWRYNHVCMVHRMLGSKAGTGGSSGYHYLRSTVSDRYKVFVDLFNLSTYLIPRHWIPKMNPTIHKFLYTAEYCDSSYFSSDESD

As usually defined, the IC50 is the concentration that inhibits the measured activity by half. As to `COc1ccc(-n2cc(C(O)c3c(C4CC4)ccc4cncn34)nn2)cc1` (racemic) [Example 4, rac-(6-Cyclopropyl-imidazo[1,5-a]pyridin-5-yl)-[1-(4-methoxy-phenyl)-1H-[1,2,3]triazol-4-yl]-methanol], the results for the half-inhibitory concentration (IC50) (in experiment [1]; in experiment [2]; at IDO1 in SKOV3 cells) were 3.7 nM, greater than 10200 nM and 42.2 nM, respectively.

With `Cc1ccc(-n2cc(C(O)c3c(C4CC4)ccc4cncn34)nn2)cc1` (racemic) [Example 5, rac-(6-Cyclopropyl-imidazo[1,5-a]pyridin-5-yl)-(1-p-tolyl-1H-[1,2,3]triazol-4-yl)-methanol], the 50% inhibitory concentration (IC50) in experiment [1] was 4.83 nM; in experiment [2] it was greater than 10200 nM; on IDO1 in SKOV3 cells it was 53.7 nM.

On to `COC(=O)Nc1ccc(-n2cc(C(O)c3c(C4CC4)ccc4cncn34)nn2)cc1` (racemic) [Example 6, rac-(4-{4-[(6-Cyclopropyl-imidazo[1,5-a]pyridin-5-yl)-hydroxy-methyl]-[1,2,3]triazol-1-yl}-phenylycarbamic acid methyl ester], for which the figures for the IC50 (in experiment [1]; in experiment [2]; on IDO1 in SKOV3 cells) were 9.14 nM, greater than 10200 nM and 11.8 nM, respectively.

On to `Oc1ccc(-n2cc(C(O)c3c(C4CC4)ccc4cncn34)nn2)cc1Cl` (racemic) [Example 7, rac-2-Chloro-4-{4-[(6-cyclopropyl-imidazo[1,5-a]pyridin-5-yl)-hydroxy-methyl]-[1,2,3]triazol-1-yl}-phenol], for which the IC50 in experiment [1] is 3.77 nM; in experiment [2], greater than 10200 nM; at IDO1 in SKOV3 cells it was 6.12 nM.

With `COc1ccc(-n2cc(C(O)c3c(C4CC4)ccc4cncn34)nn2)cc1Cl` (racemic) [Example 8, rac-[1-(3-Chloro-4-methoxy-phenyl)-1H-[1,2,3]triazol-4-yl]-(6-cyclopropyl-imidazo[1,5-a]pyridin-5-yl)-methanol], the IC50 is 7.41 nM in experiment [1], greater than 10200 nM in experiment [2] and 8.8 nM at IDO1 in SKOV3 cells.

Consider `CCOc1ccc(-n2cc(C(O)c3c(C4CC4)ccc4cncn34)nn2)cn1` (racemic) [Example 9, rac-(6-Cyclopropyl-imidazo[1,5-a]pyridin-5-yl)-[1-(6-ethoxy-pyridin-3-yl)-1H-[1,2,3]triazol-4-yl]-methanol], for which the IC50 in experiment [1] was 5.43 nM; in experiment [2], greater than 10200 nM; at IDO1 in SKOV3 cells it was 31.2 nM.

As to `Oc1ccc(-n2cc(C(O)c3c(C4CC4)ncc4cncn34)nn2)cc1Cl` (racemic) [Example 10, rac-2-Chloro-4-{4-[(6-cyclopropyl-imidazo[1,5-a]pyrazin-5-yl)-hydroxy-methyl]-[1,2,3]triazol-1-yl}-phenol], the IC50 is 9.6 nM in experiment [1], greater than 10200 nM in experiment [2] and 25.4 nM at IDO1 in SKOV3 cells.

Take `COc1ccc(-n2cc(C(O)c3c(C4CC4)ncc4cncn34)nn2)cc1Cl` (racemic) [Example 11, rac-[1-(3-Chloro-4-methoxy-phenyl)-1H-[1,2,3]triazol-4-yl]-(6-cyclopropyl-imidazo[1,5-a]pyrazin-5-yl)-methanol]: the concentration for half-maximal inhibition (IC50) in experiment [1] was 12.5 nM; in experiment [2], greater than 10200 nM; on IDO1 in SKOV3 cells it was 37.1 nM.

With `COC(=O)Nc1ccc(-n2cc(C(O)c3c(C4CC4)ncc4cncn34)nn2)cc1` (racemic) [Example 12, rac-(4-{4-[(6-Cyclopropyl-imidazo[1,5-a]pyrazin-5-yl)-hydroxy-methyl]-[1,2,3]triazol-1-yl}-phenyl)-carbamic acid methyl ester], the half-inhibitory concentration (IC50) in experiment [1] is 21.5 nM; in experiment [2] it was greater than 10200 nM; at IDO1 in SKOV3 cells, 73.9 nM.

For the compound `CCOc1ccc(-n2cc(C(O)c3c(C4CC4)ncc4cncn34)nn2)cn1` (racemic) [Example 13, rac-(6-Cyclopropyl-imidazo[1,5-a]pyrazin-5-yl)-[1-(6-ethoxy-pyridin-3-yl)-1H-[1,2,3]triazol-4-yl]-methanol], the IC50 is 27.2 nM in experiment [1], greater than 10200 nM in experiment [2] and 326 nM on IDO1 in SKOV3 cells.

As for `Oc1ccc(-n2cc(C(O)c3c(C4CC4)ccc4cncn34)nn2)cc1` (racemic) [Example 14, rac-4-{4-[(6-Cyclopropyl-imidazo[1,5-a]pyridin-5-yl)-hydroxy-methyl]-[1,2,3]triazol-1-yl}-phenol], the IC50 was 5.05 nM in experiment [1], greater than 10200 nM in experiment [2] and 34.6 nM at IDO1 in SKOV3 cells.

Regarding `Oc1ccc(-n2cc(C(O)c3c(C4CC4)ncc4cncn34)nn2)cc1` (racemic) [Example 15, rac-4-{4-[(6-Cyclopropyl-imidazo[1,5-a]pyrazin-5-yl)-hydroxy-methyl]-[1,2,3]triazol-1-yl}-phenol], the half-maximal inhibitory concentration (IC50) in experiment [1] is 13.1 nM; in experiment [2], 9610 nM; at IDO1 in SKOV3 cells it was 208 nM.
